Paper PMC7316778 (Nature Communications, 2020)
“And” between values parts separate entries of the source, which are not always exact repeats. Equal values may be shown once. Read-outs that look alike come from different tables or passages of the source.

Columns and labels:
Assay in all cases: SelectScreen kinase assay
[1] = biological target: CSNK1A1L (Homo sapiens, UniProt Q8N752)
Description: (§1) Selectivity profiling assays were performed by the Invitrogen SelectScreen™ Services. […] The concentration of ATP was selected to be equal to the KM, unless indicated otherwise.

[2] = biological target: DAPK3 (ZIPK) (Homo sapiens, UniProt O43293); conditions: for Inhibition at 1 µM (%): DAPK3 (ZIPK), ZLYTE, ATP Km app
DAPK3 (ZIPK), sequence (O43293 whole entry): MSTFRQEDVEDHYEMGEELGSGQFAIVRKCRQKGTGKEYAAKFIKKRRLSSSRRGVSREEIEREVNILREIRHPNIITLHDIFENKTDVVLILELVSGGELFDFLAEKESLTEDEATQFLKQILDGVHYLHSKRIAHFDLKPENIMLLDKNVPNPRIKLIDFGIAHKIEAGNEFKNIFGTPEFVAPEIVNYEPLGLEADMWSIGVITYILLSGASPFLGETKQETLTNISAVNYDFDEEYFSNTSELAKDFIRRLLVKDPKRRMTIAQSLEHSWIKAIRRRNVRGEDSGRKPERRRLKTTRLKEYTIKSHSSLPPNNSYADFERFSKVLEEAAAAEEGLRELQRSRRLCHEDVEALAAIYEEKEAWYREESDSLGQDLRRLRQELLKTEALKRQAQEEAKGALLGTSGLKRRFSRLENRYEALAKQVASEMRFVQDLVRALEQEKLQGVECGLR
Description: as §1

[3] = biological target: DNA-PK (Homo sapiens, UniProt P78527)
Description: as §1

[4] = biological target: EIF2AK2 (PKR) (Homo sapiens, UniProt P19525)
EIF2AK2 (PKR), sequence (P19525 whole entry): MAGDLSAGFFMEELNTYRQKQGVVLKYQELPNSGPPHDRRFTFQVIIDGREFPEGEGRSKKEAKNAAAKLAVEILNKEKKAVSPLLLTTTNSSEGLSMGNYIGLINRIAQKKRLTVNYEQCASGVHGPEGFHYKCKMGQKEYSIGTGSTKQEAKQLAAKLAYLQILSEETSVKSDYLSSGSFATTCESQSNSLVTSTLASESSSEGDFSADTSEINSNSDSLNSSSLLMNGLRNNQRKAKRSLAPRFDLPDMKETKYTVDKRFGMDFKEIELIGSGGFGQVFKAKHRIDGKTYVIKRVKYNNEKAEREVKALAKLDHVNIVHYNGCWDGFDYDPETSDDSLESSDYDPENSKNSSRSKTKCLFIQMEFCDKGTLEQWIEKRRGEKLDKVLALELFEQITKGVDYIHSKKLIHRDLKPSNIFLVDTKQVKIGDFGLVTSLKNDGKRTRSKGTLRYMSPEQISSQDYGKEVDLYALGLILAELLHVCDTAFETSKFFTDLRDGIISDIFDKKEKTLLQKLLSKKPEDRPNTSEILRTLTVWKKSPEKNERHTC
Description: as §1

[5] = biological target: GSK3B (GSK3 beta) (Homo sapiens, UniProt P49841)
GSK3B (GSK3 beta), sequence (P49841 whole entry): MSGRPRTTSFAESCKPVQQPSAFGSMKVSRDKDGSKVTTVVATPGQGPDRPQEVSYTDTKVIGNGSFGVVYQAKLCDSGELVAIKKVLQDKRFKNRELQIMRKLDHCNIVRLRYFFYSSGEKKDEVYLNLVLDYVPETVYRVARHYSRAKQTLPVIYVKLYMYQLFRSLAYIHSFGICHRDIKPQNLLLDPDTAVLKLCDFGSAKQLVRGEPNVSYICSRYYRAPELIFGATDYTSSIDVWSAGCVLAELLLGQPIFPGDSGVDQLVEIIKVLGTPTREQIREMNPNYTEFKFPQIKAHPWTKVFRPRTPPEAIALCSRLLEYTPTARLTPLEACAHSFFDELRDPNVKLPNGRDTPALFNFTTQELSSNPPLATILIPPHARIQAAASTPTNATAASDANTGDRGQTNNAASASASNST
Description: as §1

[6] = biological target: LIMK2 (Homo sapiens, UniProt P53671)
LIMK2, sequence (P53671 whole entry): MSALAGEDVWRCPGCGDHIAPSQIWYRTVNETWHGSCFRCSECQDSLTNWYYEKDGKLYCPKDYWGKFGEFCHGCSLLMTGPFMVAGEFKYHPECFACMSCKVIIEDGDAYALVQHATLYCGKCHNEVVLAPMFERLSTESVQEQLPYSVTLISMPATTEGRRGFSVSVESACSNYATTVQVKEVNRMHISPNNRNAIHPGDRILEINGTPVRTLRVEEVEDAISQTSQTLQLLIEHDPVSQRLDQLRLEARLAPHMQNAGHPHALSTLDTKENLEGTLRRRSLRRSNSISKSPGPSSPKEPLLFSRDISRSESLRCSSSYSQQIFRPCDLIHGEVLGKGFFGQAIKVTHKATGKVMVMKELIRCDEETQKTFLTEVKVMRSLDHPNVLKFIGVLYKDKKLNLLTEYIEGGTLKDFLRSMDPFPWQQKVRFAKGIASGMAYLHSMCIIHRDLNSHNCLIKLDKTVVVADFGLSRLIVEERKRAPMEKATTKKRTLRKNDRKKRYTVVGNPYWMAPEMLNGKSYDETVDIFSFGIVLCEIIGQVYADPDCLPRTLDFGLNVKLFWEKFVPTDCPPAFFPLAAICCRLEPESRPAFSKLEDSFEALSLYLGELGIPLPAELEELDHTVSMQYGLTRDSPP
Description: as §1

[7] = biological target: T1, MAPK15 (ERK7) (Homo sapiens, UniProt Q8TD08)
T1 sequence (Q8TD08 1-544): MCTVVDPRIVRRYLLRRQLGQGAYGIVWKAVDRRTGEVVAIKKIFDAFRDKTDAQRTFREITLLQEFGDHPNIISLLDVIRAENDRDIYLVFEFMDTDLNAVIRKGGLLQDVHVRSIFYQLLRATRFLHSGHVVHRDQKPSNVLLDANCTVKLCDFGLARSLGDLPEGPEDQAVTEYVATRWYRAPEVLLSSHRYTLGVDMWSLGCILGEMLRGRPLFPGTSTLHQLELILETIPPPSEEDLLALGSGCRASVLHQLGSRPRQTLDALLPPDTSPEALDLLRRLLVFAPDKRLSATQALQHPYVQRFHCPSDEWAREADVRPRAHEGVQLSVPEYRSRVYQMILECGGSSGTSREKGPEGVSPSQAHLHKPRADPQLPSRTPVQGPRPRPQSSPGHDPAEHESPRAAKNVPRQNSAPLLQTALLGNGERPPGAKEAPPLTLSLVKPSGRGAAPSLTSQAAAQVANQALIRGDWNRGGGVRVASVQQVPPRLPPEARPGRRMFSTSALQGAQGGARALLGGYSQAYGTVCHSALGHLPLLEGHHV
Description: as §1

[8] = biological target: MAPK8 (JNK1) (Homo sapiens, UniProt P45983)
MAPK8 (JNK1), sequence (P45983 whole entry): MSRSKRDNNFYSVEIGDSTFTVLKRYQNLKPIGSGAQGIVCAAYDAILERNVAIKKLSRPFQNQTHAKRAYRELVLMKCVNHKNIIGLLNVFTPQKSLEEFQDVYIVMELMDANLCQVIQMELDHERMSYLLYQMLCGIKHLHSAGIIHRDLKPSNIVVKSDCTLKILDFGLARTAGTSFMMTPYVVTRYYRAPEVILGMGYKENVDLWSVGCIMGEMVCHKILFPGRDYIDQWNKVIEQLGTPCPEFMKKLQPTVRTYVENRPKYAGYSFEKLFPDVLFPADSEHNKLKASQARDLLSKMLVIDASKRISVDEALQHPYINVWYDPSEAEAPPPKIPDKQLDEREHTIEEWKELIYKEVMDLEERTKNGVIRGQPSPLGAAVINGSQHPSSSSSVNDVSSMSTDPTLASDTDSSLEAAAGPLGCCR
Description: as §1

[9] = biological target: T2, MARK4 (Homo sapiens, UniProt Q96L34)
T2 sequence (Q96L34 1-752): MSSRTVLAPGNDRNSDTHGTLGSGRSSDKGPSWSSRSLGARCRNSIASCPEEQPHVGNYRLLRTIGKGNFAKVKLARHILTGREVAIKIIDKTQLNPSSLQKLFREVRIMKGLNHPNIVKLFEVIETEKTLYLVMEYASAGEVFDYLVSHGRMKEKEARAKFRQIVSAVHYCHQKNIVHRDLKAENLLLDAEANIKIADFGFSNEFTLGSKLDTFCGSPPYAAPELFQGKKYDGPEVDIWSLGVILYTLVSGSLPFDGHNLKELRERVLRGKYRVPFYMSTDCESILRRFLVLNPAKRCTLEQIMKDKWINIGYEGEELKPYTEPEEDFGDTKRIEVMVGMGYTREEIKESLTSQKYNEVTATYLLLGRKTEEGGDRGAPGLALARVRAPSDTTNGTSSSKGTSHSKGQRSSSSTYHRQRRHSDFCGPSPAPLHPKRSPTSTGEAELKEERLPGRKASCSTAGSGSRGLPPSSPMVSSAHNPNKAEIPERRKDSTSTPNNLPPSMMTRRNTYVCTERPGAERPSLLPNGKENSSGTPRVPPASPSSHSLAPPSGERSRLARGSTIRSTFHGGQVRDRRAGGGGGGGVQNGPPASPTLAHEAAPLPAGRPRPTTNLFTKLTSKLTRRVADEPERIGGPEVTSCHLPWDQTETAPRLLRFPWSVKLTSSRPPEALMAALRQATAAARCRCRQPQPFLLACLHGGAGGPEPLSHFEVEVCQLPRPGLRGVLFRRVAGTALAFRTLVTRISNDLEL
Description: as §1

[10] = biological target: MATK (HYL) (Homo sapiens, UniProt P42679)
Description: as §1

[11] = biological target: PHKG2 (Homo sapiens, UniProt P15735)
Description: as §1

[12] = biological target: PIK3CB/PIK3R1 (p110 beta/p85 alpha) (Homo sapiens, UniProt P42338)
PIK3CB/PIK3R1 (p110 beta/p85 alpha), sequence (P42338 whole entry): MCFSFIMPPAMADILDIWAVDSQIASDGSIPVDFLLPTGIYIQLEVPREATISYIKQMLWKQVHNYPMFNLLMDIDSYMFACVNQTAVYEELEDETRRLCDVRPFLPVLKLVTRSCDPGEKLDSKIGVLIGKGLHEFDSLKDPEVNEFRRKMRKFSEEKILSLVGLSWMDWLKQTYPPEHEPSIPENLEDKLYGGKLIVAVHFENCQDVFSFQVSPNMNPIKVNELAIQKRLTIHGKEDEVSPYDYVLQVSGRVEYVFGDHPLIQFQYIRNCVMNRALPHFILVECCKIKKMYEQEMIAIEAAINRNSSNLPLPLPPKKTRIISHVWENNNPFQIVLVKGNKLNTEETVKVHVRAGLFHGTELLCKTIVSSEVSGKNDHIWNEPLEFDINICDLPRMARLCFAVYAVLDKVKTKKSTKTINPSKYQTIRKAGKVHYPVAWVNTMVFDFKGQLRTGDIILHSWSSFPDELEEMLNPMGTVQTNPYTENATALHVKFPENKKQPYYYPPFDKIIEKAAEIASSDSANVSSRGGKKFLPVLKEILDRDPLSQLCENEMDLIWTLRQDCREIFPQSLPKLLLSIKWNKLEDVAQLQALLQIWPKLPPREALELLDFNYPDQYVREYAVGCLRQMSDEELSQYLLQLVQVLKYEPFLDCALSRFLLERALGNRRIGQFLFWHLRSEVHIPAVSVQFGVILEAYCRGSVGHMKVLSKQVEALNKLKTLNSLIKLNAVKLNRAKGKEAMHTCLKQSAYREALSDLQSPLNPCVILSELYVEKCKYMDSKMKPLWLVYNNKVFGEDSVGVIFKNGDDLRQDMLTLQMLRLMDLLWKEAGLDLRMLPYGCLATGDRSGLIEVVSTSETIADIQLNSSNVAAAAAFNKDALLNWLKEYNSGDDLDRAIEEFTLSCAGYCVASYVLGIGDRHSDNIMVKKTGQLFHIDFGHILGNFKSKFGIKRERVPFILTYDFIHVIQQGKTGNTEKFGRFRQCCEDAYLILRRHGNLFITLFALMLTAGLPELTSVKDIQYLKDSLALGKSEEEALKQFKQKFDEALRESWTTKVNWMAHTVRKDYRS
PIK3CB/PIK3R1 (p110 beta/p85 alpha), sequence (P27986 whole entry partner): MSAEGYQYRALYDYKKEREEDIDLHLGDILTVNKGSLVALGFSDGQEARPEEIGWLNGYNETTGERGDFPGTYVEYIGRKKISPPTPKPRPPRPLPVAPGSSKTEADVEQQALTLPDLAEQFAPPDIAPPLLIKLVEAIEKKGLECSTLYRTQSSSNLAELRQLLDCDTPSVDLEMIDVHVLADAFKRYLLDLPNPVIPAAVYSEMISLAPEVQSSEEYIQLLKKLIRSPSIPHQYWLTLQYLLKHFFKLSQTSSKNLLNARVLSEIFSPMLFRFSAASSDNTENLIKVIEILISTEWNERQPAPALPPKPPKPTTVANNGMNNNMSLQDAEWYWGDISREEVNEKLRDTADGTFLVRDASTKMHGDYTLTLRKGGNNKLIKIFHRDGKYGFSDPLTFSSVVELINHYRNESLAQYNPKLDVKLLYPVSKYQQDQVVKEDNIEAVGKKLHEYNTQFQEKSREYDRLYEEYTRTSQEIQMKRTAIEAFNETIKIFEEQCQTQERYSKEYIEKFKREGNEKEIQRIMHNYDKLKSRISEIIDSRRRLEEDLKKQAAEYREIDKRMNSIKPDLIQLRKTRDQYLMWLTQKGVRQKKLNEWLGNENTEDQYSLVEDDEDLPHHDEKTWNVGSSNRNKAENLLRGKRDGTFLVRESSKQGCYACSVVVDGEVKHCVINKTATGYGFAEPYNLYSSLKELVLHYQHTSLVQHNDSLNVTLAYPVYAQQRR
Description: as §1

[13] = biological target: T3, STK22B (TSSK2) (Homo sapiens, UniProt Q96PF2)
T3 sequence (Q96PF2 1-358): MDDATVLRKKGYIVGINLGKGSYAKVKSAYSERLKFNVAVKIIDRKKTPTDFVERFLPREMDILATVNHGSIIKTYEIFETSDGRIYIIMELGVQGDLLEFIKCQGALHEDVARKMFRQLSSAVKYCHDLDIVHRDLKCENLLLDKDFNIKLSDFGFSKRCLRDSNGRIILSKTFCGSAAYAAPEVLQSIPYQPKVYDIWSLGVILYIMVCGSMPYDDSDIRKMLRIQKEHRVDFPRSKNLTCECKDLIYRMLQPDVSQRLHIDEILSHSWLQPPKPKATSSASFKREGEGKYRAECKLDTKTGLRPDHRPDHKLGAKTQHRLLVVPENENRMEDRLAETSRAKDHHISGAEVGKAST
Description: as §1

[14] = read-out: Inhibition at 1 µM (%)
[15] = 1 h, 1 μM WEL028, 1 h preincubation

CSNK1A1L, sequence (Q8N752 whole entry): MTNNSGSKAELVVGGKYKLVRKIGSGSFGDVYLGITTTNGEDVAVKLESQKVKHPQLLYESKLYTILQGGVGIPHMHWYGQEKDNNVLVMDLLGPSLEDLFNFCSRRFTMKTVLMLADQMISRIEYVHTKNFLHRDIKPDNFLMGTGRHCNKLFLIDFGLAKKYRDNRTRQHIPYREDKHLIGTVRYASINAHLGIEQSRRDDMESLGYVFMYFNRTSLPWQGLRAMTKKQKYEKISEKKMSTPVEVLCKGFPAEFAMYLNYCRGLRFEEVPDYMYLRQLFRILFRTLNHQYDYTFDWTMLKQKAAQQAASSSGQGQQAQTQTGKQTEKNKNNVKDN

`C#CCOc1ccc(Nc2ncc(Cl)c(Nc3ccccc3NC(=O)C=C)n2)c(OC)c1` [Compound 6] showed an inhibition at 1 µM ([1]; 1 h) of 5%, an inhibition at 1 µM [1, 14] of 5% and an inhibition at 1 µM [2, 15] of 4%. For the same compound, the “Inhibition at 1 µM (%)” value [2] was 2%, the “Inhibition at 1 µM (%)” value ([2]; listed as WEL028, 1 µM) was 5% and the inhibition at 1 µM [3, 15] was 6%. The “Inhibition at 1 µM (%)” value ([3]; DNA-PK, 1 µM, ZLYTE, ATP Km app, listed as WEL028, 1 µM) was 8%, the inhibition at 1 µM ([3]; read-out: Inhibition at 1 µM (%), DNA-PK, 1 µM, ZLYTE, ATP Km app) was 4% and the “Inhibition (%)” value ([4]; 1 μM WEL028, 1 h preincubation) was 4%. The “Inhibition at 1 µM (%)” value ([4]; EIF2AK2 (PKR), 1 µM, LanthaScreen Binding, listed as WEL028, 1 µM) was 6% and 1%, the inhibition at 1 µM [5, 15] was 4% and the inhibition at 1 µM ([5]; read-out: Inhibition at 1 µM (%), GSK3B (GSK3 beta), 1 µM, ZLYTE, ATP Km app) was 5%. For the same compound, the inhibition at 1 µM [6, 15] was -2%, the “Inhibition at 1 µM (%)” value ([6]; LIMK2, 1 µM, LanthaScreen Binding, listed as WEL028, 1 µM) was -5% and 1% and the inhibition at 1 µM [7, 15] was 5%. For the same compound, the “Inhibition at 1 µM (%)” value ([7]; MAPK15 (ERK7), 1 µM, LanthaScreen Binding, listed as WEL028, 1 µM) was 4%, the inhibition at 1 µM ([7]; read-out: Inhibition at 1 µM (%), MAPK15 (ERK7), 1 µM, LanthaScreen Binding) was 7% and the “Inhibition (%)” value ([8]; 1 μM WEL028, 1 h preincubation) was 16%. For the same compound, the “Inhibition at 1 µM (%)” value ([8]; MAPK8 (JNK1), 1 µM, ZLYTE, ATP 100, listed as WEL028, 1 µM) was 22%, the inhibition at 1 µM ([8]; read-out: Inhibition at 1 µM (%), MAPK8 (JNK1), 1 µM, ZLYTE, ATP 100) was 11% and the “Inhibition (%)” value ([9]; 1 μM WEL028, 1 h preincubation) was 8%. For the same compound, the “Inhibition at 1 µM (%)” value ([9]; MARK4, 1 µM, ZLYTE, ATP Km app, listed as WEL028, 1 µM) was 6%, the inhibition at 1 µM ([9]; read-out: Inhibition at 1 µM (%), MARK4, 1 µM, ZLYTE, ATP Km app) was 9% and the inhibition at 1 µM ([10]; 1 h) was 8%. The inhibition at 1 µM [10, 14] was 8%, the inhibition at 1 µM [11, 15] was 0% and the “Inhibition at 1 µM (%)” value ([11]; PHKG2, 1 µM, ZLYTE, ATP Km app) was 11%. The inhibition at 1 µM [12, 15] was -8%, the “Inhibition at 1 µM (%)” value ([12]; PIK3CB/PIK3R1 (p110 beta/p85 alpha), 1 µM, Adapta, ATP Km app, listed as WEL028, 1 µM) was -10% and -7% and the “Inhibition at 1 µM (%)” value ([13]; 1 µM, ZLYTE, ATP Km app, listed as WEL028, 1 µM) was 17%. It also gave an inhibition at 1 µM [13, 15] of 18% and an inhibition at 1 µM ([13]; read-out: Inhibition at 1 µM (%), 1 µM, ZLYTE, ATP Km app) of 18%.
